Assay results as given in ChEMBL document CHEMBL6092194, “Development of membrane-targeting chalcone derivatives as antibacterial agents against multidrug-resistant bacteria” (Eur J Med Chem, 2024).
Calls of active or inactive are those of the source. The rule behind the calls is not given here.

Columns and labels:
[1] = Ratio of MBC for Escherichia coli ATCC25922 measured after 6 hrs in presence of 50% plasma to MBC for Escherichia coli ATCC25922 in Mueller Hinton Broth; assay type: functional
[2] = Selectivity index, ratio of HC50 for hemolytic activity in red blood cells (unknown origin) to MIC for antibacterial activity against penicillin-resistant Staphylococcus aureus ATCC43300; assay type: toxicity, cell-based, RBC; conditions: read-out: Selectivity Index
[3] = Selectivity index, ratio of HC50 for hemolytic activity in red blood cells (unknown origin) to MIC for antibacterial activity against penicillin-susceptible Escherichia coli ATCC25922; assay type: toxicity, cell-based, RBC; conditions: read-out: Selectivity Index
Staphylococcus aureus [4] = assay: Bactericidal activity against Staphylococcus aureus ATCC43300 in Mueller Hinton Broth; assay type: functional
Staphylococcus aureus [5] = assay: Bactericidal activity against Staphylococcus aureus ATCC43300 in presence of 50% plasma; assay type: functional
Staphylococcus aureus [6] = assay: Bactericidal activity against Staphylococcus aureus ATCC43300 assessed as log reduction in bacterial colony at 8 microg/ml measured upto 24 hrs by time-kill kinetics assay; assay type: functional; conditions: dose 8 µg/ml
Escherichia coli [7] = assay: Bactericidal activity against Escherichia coli ATCC25922 assessed as log reduction in bacterial colony at 8 times of MIC measured after 6 hrs by time-kill kinetics assay; assay type: functional
Escherichia coli [8] = assay: Antibiofilm activity against Escherichia coli ATCC25922 assessed as inhibition of biofilm formation at 1 microg/ml relative to control; assay type: functional
Staphylococcus aureus [9] = assay: Antibiofilm activity against Staphylococcus aureus ATCC43300 assessed as inhibition of biofilm formation at 16 microg/ml relative to control; assay type: functional
Escherichia coli [10] = assay: Antibiofilm activity against Escherichia coli ATCC25922 assessed as inhibition of biofilm formation at 16 microg/ml relative to control; assay type: functional
Escherichia coli [11] = assay: Disruption of preformed biofilm in Escherichia coli ATCC25922 assessed as eradication of biofilm at 32 microg/ml relative to control; assay type: functional; conditions: dose 32 µg/ml
Staphylococcus aureus [12] = assay: Induction of morphological changes in Staphylococcus aureus ATCC43300 assessed as rough appearance of cell membrane by scanning electron microscopic analysis; assay type: functional, organism-based
Cell membrane [13] = assay: Induction of cytoplasmic membrane depolarization in Staphylococcus aureus ATCC43300 assessed as increase in fluorescence intensity measured after 24 mins by DiSC3(5) dye-based fluorescence assay; conditions: dose 0.5-8 µg/ml
Cell membrane [14] = assay: Induction of cytoplasmic membrane depolarization in Escherichia coli ATCC25922 assessed as increase in fluorescence intensity measured after 24 mins by DiSC3(5) dye-based fluorescence assay; conditions: dose 0.5-8 µg/ml
Cell membrane [15] = assay: Induction of inner membrane permeabilization in Escherichia coli ATCC25922 assessed as increase in fluorescence intensity incubated for 20 mins by PI uptake assay; assay type: subcellular; conditions: dose 0.5-8 µg/ml
Cell membrane [16] = assay: Induction of inner membrane permeabilization in Staphylococcus aureus ATCC43300 assessed as fold increase in fluorescence intensity at 8 microg/ml incubated for 20 mins by PI uptake assay relative to negative control; assay type: subcellular; conditions: dose 8.0 µg/ml
Cell membrane [17] = assay: Induction of inner membrane permeabilization in Escherichia coli ATCC25922 assessed as fold increase in fluorescence intensity at 8 microg/ml incubated for 20 mins by PI uptake assay relative to negative control; assay type: subcellular; conditions: dose 8.0 µg/ml
Cell membrane [18] = assay: Disruption of cell membrane in Staphylococcus aureus ATCC43300 assessed as increase in intracellular ROS level by DCFH-DA staining based fluorescence analysis; assay type: subcellular; conditions: dose 1-8 µg/ml
Cell membrane [19] = assay: Disruption of cell membrane in Escherichia coli ATCC25922 assessed as increase in intracellular ROS level by measuring fold increase in fluorescence intensity at 8 microg/ml by DCFH-DA staining based fluorescence analysis relative to blank control group; conditions: dose 8.0 µg/ml
Cell membrane [20] = assay: Disruption of cell membrane in Staphylococcus aureus ATCC43300 assessed as increase in DNA leakage; conditions: dose 1-8 µg/ml
Cell membrane [21] = assay: Disruption of cell membrane in Staphylococcus aureus ATCC43300 assessed as fold increase in DNA leakage at 8 microg/ml relative to control; assay type: subcellular; conditions: dose 8.0 µg/ml
[22] = Cytotoxicity against human L02 cells by CCK8 assay; assay type: toxicity, cell-based
[23] = Cytotoxicity against human L02 cells assessed as cell viability at 8 microg/ml by CCK8 assay relative to control; assay type: toxicity, cell-based; conditions: at 8 µg/mL, read-out: Activity
[24] = Toxicity in BALB/c mouse assessed as survival rate at 20 to 50 mg/kg, ip administered for 7 days relative to control; assay type: organism-based; conditions: in vivo, dose 20-50 mg/kg, time 7 day
Staphylococcus aureus [25] = assay: Antibacterial activity against Staphylococcus aureus ATCC43300 infected in sepsis mouse model assessed as log reduction in bacterial load in kidney at 5 mg/kg pre-infected with bacteria for 1 hrs followed by compound administration at 12 hrs interval for 2 days relative to control; assay type: functional; conditions: time 2 day
Escherichia coli [26] = assay: Antibacterial activity against Escherichia coli ATCC25922 infected in sepsis mouse model assessed as log reduction in bacterial load in spleen at 5 mg/kg pre-infected with bacteria for 1 hrs followed by compound administration at 12 hrs interval for 2 days relative to control; assay type: functional; conditions: time 2 day
Escherichia coli [27] = assay: Antibacterial activity against Escherichia coli ATCC25922 infected in sepsis mouse model assessed as log reduction in bacterial load in blood at 5 mg/kg pre-infected with bacteria for 1 hrs followed by compound administration at 12 hrs interval for 2 days relative to control; assay type: functional; conditions: time 2 day
Staphylococcus aureus [28] = assay: Antibacterial activity against Staphylococcus aureus ATCC43300 infected in sepsis mouse model assessed as reduction in liver inflammation at 5 to 10 mg/kg pre-infected with bacteria for 1 hrs followed by compound administration at 12 hrs interval for 2 days by H and E staining based analysis; assay type: functional, organism-based; conditions: dose 5-10 mg/kg, time 2.0 day
Escherichia coli [29] = assay: (§1) Antibacterial activity against Escherichia coli ATCC25922 infected in sepsis mouse model assessed as reduction in liver inflammation at 5 to 10 mg/kg pre-infected with bacteria for 1 hrs followed by compound administration at 12 hrs interval for 2 days by H and E staining based analysis; assay type: functional, organism-based; conditions: dose 5-10 mg/kg, time 2.0 day
Escherichia coli [30] = assay: Antibacterial activity against Escherichia coli ATCC25922 infected in sepsis mouse model assessed as reduction in kidney inflammation at 5 to 10 mg/kg pre-infected with bacteria for 1 hrs followed by compound administration at 12 hrs interval for 2 days by H and E staining based analysis; assay type: functional, organism-based; conditions: dose 5-10 mg/kg, time 2.0 day
Staphylococcus aureus [31] = assay: (§2) Antibacterial activity against Staphylococcus aureus ATCC43300 infected in sepsis mouse model assessed as reduction in inflammatory cell infiltration in liver at 10 mg/kg pre-infected with bacteria for 1 hrs followed by compound administration at 12 hrs interval for 2 days by H and E staining based analysis; assay type: functional, organism-based; conditions: time 2.0 day
Staphylococcus aureus [32] = assay: as §2, with “spleen” for “liver”; assay type: functional, organism-based; conditions: time 2.0 day
Escherichia coli [33] = assay: as §1, with “inflammatory cell infiltration in spleen” for “liver inflammation”, “at” for “at 5 to”; assay type: functional, organism-based; conditions: time 2.0 day
[34] = Selectivity ratio of MBC for Staphylococcus aureus ATCC43300 in presence of 50% plasma to MBC for Staphylococcus aureus ATCC43300 in Mueller Hinton Broth; assay type: functional
[35] = Ratio of MBC for Escherichia coli ATCC25922 in presence of 50% plasma to MBC for Escherichia coli ATCC25922 in Mueller Hinton Broth; assay type: functional
Escherichia coli [36] = assay: Ratio of MBC for Escherichia coli ATCC25922 in presence of 50% blood to MBC for Escherichia coli ATCC25922 in Mueller Hinton Broth; assay type: functional

Molecule `CCCCCCOc1cc[n+](CCCOc2ccc(/C=C/C(=O)c3ccc(OCCC[n+]4ccc(OCCCCCC)cc4)cc3)cc2)cc1.[Br-].[Br-]` has a Ratio [1] of under 4, a selectivity ratio [2] of 659 and a selectivity ratio [3] of 329. The MBC (Staphylococcus aureus [4]) was 4 mg/L, the MBC (Staphylococcus aureus [5]) was 4 mg/L and the “log(activity)” value (Staphylococcus aureus [6]) was 7.24. The “log(activity)” value (Escherichia coli [7]) was 8.31, the inhibition at 1 µg/mL (Escherichia coli [8]) was 12.3% and the inhibition at 16 µg/mL (Staphylococcus aureus [9]) was 90.9%. The inhibition at 16 µg/mL (Escherichia coli [10]) was 50.9%, the Activity (Escherichia coli [11]) was over 49.08% and the Activity (Staphylococcus aureus [12]) was “Active”. The Activity (Cell membrane [13]) was “Dose-dependent-effect”, the Activity (Cell membrane [14]) was “Dose-dependent-effect” and the Activity (Cell membrane [15]) was “Dose-dependent-effect”. The fold change (FC) (Cell membrane [16]) was 1.5, the fold change (FC) (Cell membrane [17]) was 1.9 and the Activity (Cell membrane [18]) was “Dose-dependent-effect”. For the same molecule, the fold change (FC) (Cell membrane [19]) was 1.5, the Activity (Cell membrane [20]) was “Dose-dependent-effect” and the fold change (FC) (Cell membrane [21]) was 12. It also gave a CC50 [22] of 25.9 mg/L, a viability at 8 microg/ml [23] of 93.9% and a survival at 168 h [24] of 100%. For the same molecule, the “log(activity)” value (Staphylococcus aureus [25]) was 0.86, the “log(activity)” value (Escherichia coli [26]) was 1.92 and the “log(activity)” value (Escherichia coli [27]) was 0.71. For the same molecule, the Activity (Staphylococcus aureus [28]) was “Active”, the Activity (Escherichia coli [29]) was “Active” and the Activity (Escherichia coli [30]) was “Active”. For the same molecule, the Activity (Staphylococcus aureus [31]) was “inactive”, the Activity (Staphylococcus aureus [32]) was “inactive” and the Activity (Escherichia coli [33]) was “inactive”. For the same molecule, the Ratio [34] was under 2, the Ratio [35] was under 2 and the Ratio (Escherichia coli [36]) was under 2.
